# Data reported in patent publication US7722863B2, “Use of granzyme b as an hsp70/hsp70 peptide dependent inducer of apoptosis in tumor cells” (Multimmune GmbH, priority 2002, dated 2010).
# Where “and” joins values, the source holds several entries; their conditions need not be identical. Identical values can stand only once.
# Tests used:
# [1] = system: Hsp70 membrane-positive leukemic cell line K562; experiment: Annexin V-FITC apoptosis assay (flow cytometry); type: cell-based; conditions: granzyme B
# Description: Exponentially growing tumor cells (day 1 after cell passage) were used for granzyme B, camptothecin treatment and as targets in cytotoxicity assays.
# Annexin V-FITC staining: Briefly, cells were washed twice in Hepes buffer containing 5 mM CaCl2 and incubated with Annexin V-FITC (Roche) for 10 min at room temperature. Annexin V-FITC positively stained cells were measured on a FACSCalibur flow cytometer (Becton Dickinson, Heidelberg, Germany).
# Similarly, a 1.3-fold and a 2.4-fold increase in the amount of Annexin V-FITC positively stained Colo+ cells were observed after 12 h and 24 h, respectively. […] A comparative Annexin V-FITC staining pattern of CX+ and CX− cells treated with granzyme B for 24 h, is illustrated in FIG. 3B. […] The amount of Annexin V-FITC positively stained K562 cells increased from 8.7% up to 16% (1.8-fold).
# [2] = system: CX+/CX− and Colo+/Colo− tumor cells; experiment: Light microscopical analysis of plastic adherence (anoikes); type: cell-based, human; conditions: 24 h post-treatment with granzyme B; Hsp70 membrane-positive and -negative lines
# Description: In order to exclude apoptosis initiated by anoikes light microscopical analysis of untreated (control), camptothecin (cam) and granzyme B (grB) treated CX+/CX− and Colo+/Colo− tumor cells were performed. […] Regarding these findings we ruled out the possibility that anoikes might be a possible mechanism for the induction of apoptotic cell death in Hsp70 membrane-positive tumor sublines. It is important to note that all apoptosis assays were determined within the adherent cell population following a short term (<1 min) trypsinization.
# CX− tumor cells = experiment: Cytochrome c release, quantitative immunoassay; type: cell-based, human; conditions: camptothecin 4 μg/ml or granzyme B 6 ng/ml, 24 h
# Description: (§1) Cytochrome c release: Cytochrome c release was determined using a quantitative immunoassay; (DCDCO, R&D Systems, Wiesbaden, Germany). Briefly, either untreated, camptothecin (4 μg/ml) or granzyme B (6 ng/ml) treated CX+ and CX− cells (1.5×10^6/ml) were washed in PBS and treated with lysis buffer for 1 h at room temperature. Following centrifugation at 1,000 g for 15 min supernatants were removed and 200 μl of a 1:100, 1:250, and a 1:500 dilution was used for a sandwich ELISA. Following incubation with substrate solution in the dark for 30 min the reaction was stopped. The optical density of each well was determined on an ELISA reader at 450 nm. The amount of cytochrome c was determined according to a calibration curve.
# (§2) As an additional test for apoptotic cell death, cytochrome c release was measured following incubation of CX+ and CX− cells with granzyme B for 24 h. As summarized in Table I, following incubation with granzyme B (6 ng/ml) for 24 h, cytochrome c concentration was elevated from 0.382 mg/ml to 0.690 mg/ml (1.8-fold) in CX+ cells. […] It was propose that the trigger of apoptosis by granzyme B is mediated via the extracellular exposed Hsp70 epitope TKD.
# CX+ tumor cells = experiment: Cytochrome c release, quantitative immunoassay; type: cell-based, human; conditions: camptothecin 4 μg/ml or granzyme B 6 ng/ml, 24 h
# Description: as §1, §2
# [3] = target: T1, recombinant human Hsp70-protein (Homo sapiens, UniProt P0DMV8); experiment: Affinity chromatography of YT cell lysate, Western blot of eluates; type: binding; conditions: Western blot with mAb 2C5, fraction F3
# T1 construct: purchased Stressgen
# Description: Bovine serum albumine (BSA, 1 mg/ml, Sigma-Aldrich, Steinheim, Germany), 1 mg/ml lyophylized, recombinant human Hsp70-protein (Stressgen, British Columbia, Canada) or 2 mg/mi Hsp70-peptide TKD (TKDNNLLGRFELSG (SEO ID NO:1), aa450-463, Bachem, Bubendorf, Switzerland) were incubated with equilibrated AminoLink agarose beads (Pierce, Rockford, USA) in 2 ml for 6 h, together with the reductant NaCNBH3. Binding capacity of BSA, Hsp70-protein and Hsp70-peptide TKD was greater 95%. Following removal of uncoupled material by extensive washing with Tris-buffer and quenching of non-reactive groups, cell lysates were administered to the BSA, Hsp70-protein and Hsp70-peptide TKD conjugated columns for 1 h.
# After washing with 10 column volumes of 20 mM Tris buffer, bound proteins were eluted with 3 M sodium chloride in 20 mM Tris buffer, in 5 fractions. Each fraction was subjected to a 10% SDS-PAGE and blotted to PVDF membranes.
# Following blocking in skim-milk (0.1%) and incubation with mAb directed against granzyme B 2C5 (IgG2a, Becton Dickinson, Heidelberg, Germany), at 4° C., for 5 h, Western blots were washed and incubated with a secondary mouse anti-IgG HRP Ab (Dianova, Hamburg, Germany), for 1 h. Proteins were detected using the ECL kit (Amersham Bioscience) for 5 sec. […]
# [4] = system: Hsp70 membrane-positive CX+ tumor subline; experiment: Cell surface binding and uptake of granzyme B (fluorescence microscopy, flow cytometry); type: cell-based, human
# T1 sequence (P0DMV8 whole entry): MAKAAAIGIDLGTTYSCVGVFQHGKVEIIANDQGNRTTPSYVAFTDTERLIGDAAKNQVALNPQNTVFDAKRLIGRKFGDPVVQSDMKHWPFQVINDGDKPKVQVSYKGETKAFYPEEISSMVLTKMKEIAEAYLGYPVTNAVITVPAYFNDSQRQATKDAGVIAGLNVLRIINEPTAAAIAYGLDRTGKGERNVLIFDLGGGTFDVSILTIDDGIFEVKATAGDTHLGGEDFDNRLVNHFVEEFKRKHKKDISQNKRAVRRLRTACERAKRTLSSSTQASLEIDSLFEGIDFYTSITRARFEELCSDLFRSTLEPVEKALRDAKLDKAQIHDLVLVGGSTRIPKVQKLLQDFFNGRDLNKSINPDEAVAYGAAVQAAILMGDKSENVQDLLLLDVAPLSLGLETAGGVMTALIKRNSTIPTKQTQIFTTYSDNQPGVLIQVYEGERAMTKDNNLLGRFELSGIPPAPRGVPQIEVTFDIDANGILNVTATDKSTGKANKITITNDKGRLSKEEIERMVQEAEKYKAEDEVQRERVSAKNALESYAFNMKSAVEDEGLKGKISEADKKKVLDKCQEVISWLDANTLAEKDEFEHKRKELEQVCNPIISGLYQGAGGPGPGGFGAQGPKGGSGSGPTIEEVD
substance,measurement,setting,value
granzyme B,amount of Annexin V-FITC positively stained K562 cells,"[1]; untreated 8.7%, data not shown",16%
same,fold increase of Annexin V-FITC positively stained K562 cells,[1]; versus untreated,1.8 fold
same,loss in plastic adherence,[2],neither Hsp70 membrane-positive nor -negative tumor cell lines exhibited any signs of loss in plastic adherence
same,cytochrome c fold increase,CX− tumor cells; control 1.0,0.9 fold
same,cytochrome c,"CX− tumor cells; mean of 4 experiments ± S.E., control 0.452 ± 0.02",0.425 mg/mL and 0.425 ± 0.075 mg/mL
same,cytochrome c fold increase,CX+ tumor cells; control 1.0,1.8 fold
same,cytochrome c,"CX+ tumor cells; mean of 4 experiments ± S.E., control 0.382 ± 0.02",0.690 mg/mL and 0.690 ± 0.08 mg/mL
same,granzyme B in YT cell eluates from Hsp70-protein column,[3],dominant 32 kDa granzyme B protein band
same,"granzyme B uptake, flow cytometry of permeabilized cells","[4]; 1 μg/ml granzyme B, 30 min, 37° C.",faint shift of the granzyme B peak to the right
same,"granzyme B uptake, flow cytometry of permeabilized cells",[4]; 2 μg/ml and 4 μg/ml granzyme B,dose-dependent increase in granzyme B uptake
same,granzyme B cell surface binding (immunofluorescence),"[4]; 15 min at 4° C., granzyme B 2 μg/ml","typical cell surface staining, was detected"
same,"granzyme B uptake, cytoplasmic staining (immunofluorescence)","[4]; temperature shift 4° C. to 37° C., 30 min",resulted in uptake of granzyme B
